Test results from US7396837B2, “Antitumoral analogs of lamellarins” (Pharma Mar, S.A.U., priority 2002, dated 2008).

Columns and labels:
Assay type in all cases: cell-based
SK-MEL-28 = experiment: SRB colorimetric cell growth inhibition assay, SK-MEL-28; conditions: Homo sapiens, SK-MEL-28, MEL-28; for GI50: GI=growth inhibition, read-out: GI50 MEL-28; for CC50: cell killing (cytotoxic effect), read-out: LC50 MEL-28; for IC (TGI): total growth inhibition (cytostatic effect), read-out: TGI MEL-28
Outline: (§1)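 Growth inhibition (GI), cytostatic total growth inhibition (TGI) and cytotoxic cell-kill (LC) parameters were calculated from SRB-stained cultures held under constant compound exposure, triplicates averaged.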

LoVo = experiment: SRB colorimetric cell growth inhibition assay, LoVo; conditions: Homo sapiens, LoVo; for GI50: GI=growth inhibition, read-out: GI50 LOVO; for CC50: cell killing (cytotoxic effect), read-out: LC50 LOVO; for IC (TGI): total growth inhibition (cytostatic effect), read-out: TGI LOVO
Outline: as §1

LNCaP = experiment: SRB colorimetric cell growth inhibition assay, LNCaP; conditions: Homo sapiens, LNCaP, LN-caP; for GI50: GI=growth inhibition, read-out: GI50 LN-caP; for CC50: cell killing (cytotoxic effect), read-out: LC50 LN-caP; for IC (TGI): total growth inhibition (cytostatic effect), read-out: TGI LN-caP
Outline: as §1

A-549 = experiment: SRB colorimetric cell growth inhibition assay, A-549; conditions: Homo sapiens, A549, A-549; for GI50: GI=growth inhibition, read-out: GI50 A-549; for CC50: cell killing (cytotoxic effect), read-out: LC50 A-549; for IC (TGI): total growth inhibition (cytostatic effect), read-out: TGI A-549
Outline: as §1

PANC-1 = experiment: SRB colorimetric cell growth inhibition assay, PANC-1; conditions: Homo sapiens, PANC-1, PANC-1; for GI50: GI=growth inhibition, read-out: GI50 PANC-1; for CC50: cell killing (cytotoxic effect), read-out: LC50 PANC-1; for IC (TGI): total growth inhibition (cytostatic effect), read-out: TGI PANC-1
Outline: as §1

HT-29 = experiment: SRB colorimetric cell growth inhibition assay, HT-29; conditions: Homo sapiens, HT-29, HT-29; for GI50: GI=growth inhibition, read-out: GI50 HT-29; for CC50: cell killing (cytotoxic effect), read-out: LC50 HT-29; for IC (TGI): total growth inhibition (cytostatic effect), read-out: TGI HT-29
Outline: as §1

IGROV-ET = experiment: SRB colorimetric cell growth inhibition assay, IGROV-ET (ET-743 resistant); conditions: Homo sapiens, IGROV-ET; for GI50: GI=growth inhibition, read-out: GI50 IGROV-ET; for CC50: cell killing (cytotoxic effect), read-out: LC50 IGROV-ET; for IC (TGI): total growth inhibition (cytostatic effect), read-out: TGI IGROV-ET
Outline: as §1

LoVo-Dox = experiment: SRB colorimetric cell growth inhibition assay, LoVo-Dox (MDR); conditions: Homo sapiens, LOVO-DOX; for GI50: GI=growth inhibition, read-out: GI50 LOVO-DOX; for CC50: cell killing (cytotoxic effect), read-out: LC50 LOVO-DOX; for IC (TGI): total growth inhibition (cytostatic effect), read-out: TGI LOVO-DOX
Outline: as §1

DU-145 = experiment: SRB colorimetric cell growth inhibition assay, DU-145; conditions: Homo sapiens, DU-145, DU-145; for GI50: GI=growth inhibition, read-out: GI50 DU-145; for CC50: cell killing (cytotoxic effect), read-out: LC50 DU-145; for IC (TGI): total growth inhibition (cytostatic effect), read-out: TGI DU-145
Outline: as §1

SK-BR-3 = experiment: SRB colorimetric cell growth inhibition assay, SK-BR-3; conditions: Homo sapiens, SK-BR-3, SK-BR-3; for GI50: GI=growth inhibition, read-out: GI50 SK-BR-3; for CC50: cell killing (cytotoxic effect), read-out: LC50 SK-BR-3; for IC (TGI): total growth inhibition (cytostatic effect), read-out: TGI SK-BR-3
Outline: as §1

SKOV-3 = experiment: SRB colorimetric cell growth inhibition assay, SKOV-3; conditions: Homo sapiens; for GI50: SK-OV-3, SKOV-3, GI=growth inhibition, read-out: GI50 SKOV-3; for LC50 (concentration causing 50% net cell killing) / IC (TGI): SK-OV-3, SKOV-3; for LC50 (concentration causing 50% net cell killing): cell killing (cytotoxic effect), read-out: LC50 SKOV-3; for IC (TGI): total growth inhibition (cytostatic effect), read-out: TGI SKOV-3
Outline: (§2)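 Sulforhodamine B colorimetric assay of cell growth and viability, mean ± SD of triplicate wells. Parameters derived: GI (growth inhibition), TGI (total growth inhibition, cytostatic) and LC (cell killing, cytotoxic).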

K-562 = experiment: SRB colorimetric cell growth inhibition assay, K-562; conditions: Homo sapiens, K562, K-562; for GI50: GI=growth inhibition, read-out: GI50 K-562; for CC50: cell killing (cytotoxic effect), read-out: LC50 K-562; for IC (TGI): total growth inhibition (cytostatic effect), read-out: TGI K-562
Outline: as §1

IGROV = experiment: SRB colorimetric cell growth inhibition assay, IGROV; conditions: Homo sapiens, IGROV; for GI50: GI=growth inhibition, read-out: GI50 IGROV; for CC50: cell killing (cytotoxic effect), read-out: LC50 IGROV; for IC (TGI): total growth inhibition (cytostatic effect), read-out: TGI IGROV
Outline: as §1

H-MEC-1 = experiment: SRB colorimetric cell growth inhibition assay, H-MEC-1; conditions: Homo sapiens, HMEC-1, H-MEC-1; for GI50: GI=growth inhibition, read-out: GI50 H-MEC-1; for IC (TGI): total growth inhibition (cytostatic effect), read-out: TGI H-MEC-1
Outline: as §2

[1] = as above; conditions: human, H-MEC-1 cells; H-MEC-1; cell killing (cytotoxic effect); read-out: LC50 H-MEC-1
Outline: as §2

## COc1cc2c(cc1OC)-c1c(-c3ccc(OC(=O)[C@H](C)NC(=O)OC(C)(C)C)c(OC)c3)c3c4cc(OC)c(OC(=O)[C@H](C)NC(=O)OC(C)(C)C)cc4oc(=O)c3n1CC2 [Compound 21]
SK-MEL-28
  GI50: 0.287 µM
  CC50: 0.86 µM
  IC (TGI): 0.497 µM
LoVo
  GI50: 1.95 µM
  CC50: 11.7 µM
  IC (TGI): 4.97 µM
LNCaP
  GI50: 0.19 µM
  CC50: 0.775 µM
  IC (TGI): 0.383 µM
A-549
  GI50: 1.39 µM
  CC50: 11.7 µM
  IC (TGI): 4.62 µM
PANC-1
  GI50: 0.514 µM
  CC50: 11.7 µM
  IC (TGI): 1.81 µM
HT-29
  GI50: 0.512 µM
  CC50: 11.7 µM
  IC (TGI): 11.7 µM
IGROV-ET
  GI50: 0.901 µM
  CC50: 11.7 µM
  IC (TGI): 5.18 µM
LoVo-Dox
  GI50: 4.97 µM
  CC50: 11.7 µM
  IC (TGI): 11.7 µM
DU-145
  GI50: 0.353 µM
  CC50: 11.7 µM
  IC (TGI): 0.703 µM
SK-BR-3
  GI50: 0.342 µM
  CC50: 11.7 µM
  IC (TGI): 0.599 µM
SKOV-3
  GI50: 0.849 µM
  LC50 (concentration causing 50% net cell killing): 11.7 µM
  IC (TGI): 11.7 µM
K-562
  GI50: 0.286 µM
  CC50: 2.39 µM
  IC (TGI): 0.582 µM
IGROV
  GI50: 0.315 µM
  CC50: 9.02 µM
  IC (TGI): 0.664 µM
H-MEC-1
  GI50: 0.281 µM
  IC (TGI): 0.509 µM
[1]
  LC50 (concentration giving 50% net cell killing): 0.922 µM

## COc1cc(-c2c3c4cc(OC)c(O)cc4oc(=O)c3n3ccc4cc(OC)c(OC)cc4c23)ccc1O [Compound 26]
SK-MEL-28
  GI50: 2.08 µM
  CC50: 19.5 µM
  IC (TGI): 7.79 µM
LoVo
  GI50: 1.19 µM
  CC50: 19.5 µM
  IC (TGI): 10 µM
LNCaP
  GI50: 0.711 µM
  CC50: 14.7 µM
  IC (TGI): 4.3 µM
A-549
  GI50: 1.11 µM
  CC50: 19.5 µM
  IC (TGI): 8.1 µM
PANC-1
  GI50: 1.07 µM
  CC50: 19.5 µM
  IC (TGI): 8.8 µM
HT-29
  GI50: 9.17 µM
  CC50: 19.5 µM
  IC (TGI): 19.5 µM
IGROV-ET
  GI50: 0.574 µM
  CC50: 19.5 µM
  IC (TGI): 2.08 µM
LoVo-Dox
  GI50: 0.867 µM
  CC50: 19.5 µM
  IC (TGI): 7.63 µM
DU-145
  GI50: 0.611 µM
  CC50: 19.5 µM
  IC (TGI): 2.94 µM
SK-BR-3
  GI50: 0.0966 µM
  CC50: 13.6 µM
  IC (TGI): 1.09 µM
SKOV-3
  GI50: 0.874 µM
  LC50 (concentration causing 50% net cell killing): 19.5 µM
  IC (TGI): 5.53 µM
K-562
  GI50: 0.785 µM
  CC50: 16.1 µM
  IC (TGI): 3.41 µM
IGROV
  GI50: 0.504 µM
  CC50: 13 µM
  IC (TGI): 2.3 µM
H-MEC-1
  GI50: 0.798 µM
  IC (TGI): 19.5 µM
[1]
  LC50 (concentration giving 50% net cell killing): 19.5 µM
